Test results taken from ChEMBL document CHEMBL6071147, “A novel 7-phenoxy-benzimidazole derivative as a potent and orally available BRD4 inhibitor for the treatment of melanoma” (Bioorg Med Chem, 2024).

Biological target: Bromodomain testis-specific protein (Homo sapiens, UniProt Q58F21)
Assay: Displacement of [Lys(5,8,12,16)Ac]H4(1 to 21)-biotin from BRDT-BD1 (unknown origin) by TR-FRET assay

- IC50: 22 nM
Structure (SMILES): Cn1cc(-c2ccc3nc(C4CCOCC4)[nH]c3c2Oc2ccccc2)ccc1=O
